# Test results published in PubChem BioAssay (NCI).
#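 Dose response: 5 concentrations. Exposure: 48 h. Format: 96-well plates. Endpoint: linear interpolation; highest concentration if not reached. TGI: total growth inhibition.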
# Columns and labels:
# Test in all cases: NCI-60 cell line screen, 48 h
# [1] = system: MDA-MB-231 breast
# [2] = system: SN12C renal
# [3] = system: DU-145 prostate
# [4] = system: IGROV1 ovarian
# [5] = system: SK-MEL-5 melanoma
# [6] = system: M14 melanoma
# [7] = system: RPMI-8226 leukemia
# [8] = system: COLO 205 colon
# [9] = system: SK-MEL-28 melanoma
# [10] = system: SK-MEL-2 melanoma
# [11] = system: NCI-H226 lung
# [12] = system: HS 578T breast
# [13] = system: A498 renal
# [14] = system: KM12 colon
# [15] = system: TK-10 renal
# [16] = system: LOX IMVI melanoma
# [17] = system: NCI-H23 lung
# [18] = system: EKVX NSCLC
# [19] = system: MDA-N
# [20] = system: A549 NSCLC
# [21] = system: UACC-257 melanoma
# [22] = system: OVCAR-8 ovarian
# [23] = system: NCI/ADR-RES ovarian
# [24] = system: SF-295 CNS
# [25] = system: UO-31 renal
# [26] = system: HL-60(TB) leukemia
# [27] = system: CCRF-CEM leukemia
# [28] = system: SNB-19 CNS
# [29] = system: U251 CNS
# [30] = system: T-47D breast
# [31] = system: CAKI-1 renal
# [32] = system: MALME-3M melanoma
# [33] = system: HCC-2998 colon
# [34] = system: 786-0 renal
# [35] = system: MCF7 breast
# [36] = system: HCT-15 colon
# [37] = system: OVCAR-3 ovarian
# [38] = system: HCT-116 colon
# [39] = system: SK-OV-3 ovarian
# [40] = system: RXF 393 renal
# [41] = system: NCI-H460 lung
# [42] = system: OVCAR-5 ovarian
# [43] = system: OVCAR-4 ovarian
# [44] = system: ACHN renal
# [45] = system: HT29 colon
# [46] = system: SF-268 CNS
# [47] = system: UACC-62 melanoma
# [48] = system: BT-549 breast
# [49] = system: MOLT-4 leukemia
# [50] = system: HOP-62 NSCLC
# [51] = system: SW-620 colon
# [52] = system: MDA-MB-435
# [53] = system: PC-3 prostate
# [54] = system: NCI-H522 lung
# [55] = system: K-562 leukemia
# [56] = system: SNB-75 CNS
# [57] = system: SF-539 CNS
# [58] = system: HOP-92 NSCLC
compound,measurement,setting,value
CC(C)c1cc(CN(C)C)c(O)c(C(C)(C)C)c1,TGI,[1],> 100 µM
same,TGI,[2],33.1 µM
same,TGI,[3],> 100 µM
same,TGI,[4],> 100 µM
same,TGI,[5],29.9 µM
same,TGI,[6],78.5 µM
same,TGI,[7],32.3 µM
same,TGI,[8],36.7 µM
same,TGI,[9],69.3 µM
same,TGI,[10],38.6 µM
same,TGI,[11],42.5 µM
same,TGI,[12],> 100 µM
same,TGI,[13],41.3 µM
same,TGI,[14],46.2 µM
same,TGI,[15],> 100 µM
same,TGI,[16],32.5 µM
same,TGI,[17],> 100 µM
same,TGI,[18],64.4 µM
same,TGI,[19],73.3 µM
same,TGI,[20],53.1 µM
same,TGI,[21],29.2 µM
same,TGI,[22],99.6 µM
same,TGI,[23],> 100 µM
same,TGI,[24],37.4 µM
same,TGI,[25],58 µM
same,TGI,[26],15.1 µM
same,TGI,[27],30 µM
same,TGI,[28],53.4 µM
same,TGI,[29],30 µM
same,TGI,[30],58.1 µM
same,TGI,[31],53.8 µM
same,TGI,[32],76.2 µM
same,TGI,[33],29.6 µM
same,TGI,[34],32.5 µM
same,TGI,[35],30.1 µM
same,TGI,[36],63.3 µM
same,TGI,[37],31.2 µM
same,TGI,[38],> 100 µM
same,TGI,[39],> 100 µM
same,TGI,[40],37.2 µM
same,TGI,[41],32.3 µM
same,TGI,[42],> 100 µM
same,TGI,[43],99.1 µM
same,TGI,[44],32.3 µM
same,TGI,[45],> 100 µM
same,TGI,[46],58.4 µM
same,TGI,[47],> 100 µM
same,TGI,[48],> 100 µM
same,TGI,[49],42.5 µM
same,TGI,[50],62.9 µM
same,TGI,[51],36.4 µM
same,TGI,[52],> 100 µM
same,TGI,[53],56.7 µM
same,TGI,[54],38.1 µM
COC(=O)c1ccccc1C1CN=NC12Cc1ccc(C)c(C)c1C2=O (stereo unspecified),TGI,[1],> 100 µM
same,TGI,[2],> 100 µM
same,TGI,[3],> 100 µM
same,TGI,[4],> 100 µM
same,TGI,[5],> 100 µM
same,TGI,[6],> 100 µM
same,TGI,[55],> 100 µM
same,TGI,[8],> 100 µM
same,TGI,[9],> 100 µM
same,TGI,[56],> 100 µM
same,TGI,[10],> 100 µM
same,TGI,[11],> 100 µM
same,TGI,[12],> 100 µM
same,TGI,[13],> 100 µM
same,TGI,[14],> 100 µM
same,TGI,[57],> 100 µM
same,TGI,[15],> 100 µM
same,TGI,[16],> 100 µM
same,TGI,[17],> 100 µM
same,TGI,[18],> 100 µM
same,TGI,[19],> 100 µM
same,TGI,[20],> 100 µM
same,TGI,[21],> 100 µM
same,TGI,[22],> 100 µM
same,TGI,[23],> 100 µM
same,TGI,[24],> 100 µM
same,TGI,[25],> 100 µM
same,TGI,[26],69.7 µM
same,TGI,[27],> 100 µM
same,TGI,[28],> 100 µM
same,TGI,[29],> 100 µM
same,TGI,[30],> 100 µM
same,TGI,[31],> 100 µM
same,TGI,[32],> 100 µM
same,TGI,[33],> 100 µM
same,TGI,[34],> 100 µM
same,TGI,[58],> 100 µM
same,TGI,[35],> 100 µM
same,TGI,[36],> 100 µM
same,TGI,[37],> 100 µM
same,TGI,[38],> 100 µM
same,TGI,[39],> 100 µM
same,TGI,[40],> 100 µM
same,TGI,[41],> 100 µM
same,TGI,[42],> 100 µM
same,TGI,[43],> 100 µM
same,TGI,[44],> 100 µM
same,TGI,[45],> 100 µM
same,TGI,[46],> 100 µM
same,TGI,[47],> 100 µM
same,TGI,[48],> 100 µM
same,TGI,[49],> 100 µM
same,TGI,[50],> 100 µM
same,TGI,[51],> 100 µM
same,TGI,[52],> 100 µM
same,TGI,[53],> 100 µM
same,TGI,[54],> 100 µM
